Laboratory results reported in ChEMBL document CHEMBL1201862, “PubChem BioAssay data set” (2004).
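Assay format: 96-well plates, 48-hour exposure. Abbreviation: GI50, concentration required for 50% inhibition of growth.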 Active and inactive are the calls of the source. Rule as the data show it: active = GI50 up to about 1.1 µM and inactive = higher.

Key:
Test in all cases: NCI anticancer screen, dose series, 48 h
[1] = test system: CCRF-CEM
[2] = test system: NCI/ADR-RES
[3] = test system: OVCAR-4
[4] = test system: COLO 205
[5] = test system: HT-29
[6] = test system: A498
[7] = test system: CAKI-1
[8] = test system: RPMI-8226
[9] = test system: SF-268
[10] = test system: UACC-62
[11] = test system: DU-145
[12] = test system: SF-295
[13] = test system: T47D
[14] = test system: SK-MEL-5
[15] = test system: UO-31
[16] = test system: MDA-MB-231
[17] = test system: OVCAR-8
[18] = test system: TK-10
[19] = test system: HL-60
[20] = test system: SK-MEL-28

Measured: GI50

CC(=O)NC1C(OC(C)C(=O)NC(C)C(=O)NC(CCC(=O)NCCCCCNc2ccc([N+](=O)[O-])c3[nH]c4ccccc4c(=O)c23)C(N)=O)C(O)C(CO)OC1(C)OCc1ccccc1 (stereo unspecified)
inactive: [1] > 100 µM | [2] > 100 µM | [3] > 100 µM | [4] > 100 µM | [5] 30.9 µM | [6] > 100 µM | [7] > 100 µM | [8] 28.1 µM | [9] > 100 µM | [10] > 100 µM | [11] 64.6 µM | [12] > 100 µM | [13] > 100 µM | [14] > 100 µM | [15] 50.4 µM | [16] 46.9 µM | [17] 71.6 µM | [18] 11.9 µM

CCn1ncc2c(=O)n3ncn(-c4ccc(Br)cc4)c3nc21
inactive: [1] > 100 µM | [2] > 100 µM | [3] > 100 µM | [4] > 100 µM | [5] > 100 µM | [6] > 100 µM | [19] > 100 µM | [8] > 100 µM | [9] > 100 µM | [10] > 100 µM | [11] > 100 µM | [12] > 100 µM | [13] > 100 µM | [14] > 100 µM | [20] > 100 µM | [15] > 100 µM | [16] > 100 µM | [17] > 100 µM | [18] > 100 µM

CCC(C(=O)C(=O)OC)P1(=O)OC(C)(C)CN1C(C)(C)C (stereo unspecified)
inactive: [2] > 100 µM | [3] > 100 µM | [4] > 100 µM | [5] > 100 µM | [6] 20.5 µM | [7] > 100 µM | [8] > 100 µM | [9] > 100 µM | [10] 22.6 µM | [11] > 100 µM | [12] > 100 µM | [13] > 100 µM | [14] > 100 µM | [20] 11.9 µM | [15] > 100 µM | [16] > 100 µM | [17] > 100 µM | [18] > 100 µM

Cc1nc2c(sc3nc4ccccc4n32)c(=O)[nH]1
inactive: [1] > 100 µM | [2] > 100 µM | [3] > 100 µM | [4] > 100 µM | [6] > 100 µM | [7] > 100 µM | [8] > 100 µM | [9] > 100 µM | [10] > 100 µM | [11] > 100 µM | [12] > 100 µM | [13] > 100 µM | [14] > 100 µM | [20] > 100 µM | [15] > 100 µM | [16] > 100 µM | [17] 42.5 µM | [18] > 100 µM

Cc1ccc(C2(c3ccc(C)c(O)c3C)CCN(C)CC2)c(C)c1O
inactive: [1] 60.1 µM | [2] > 100 µM | [3] > 100 µM | [5] 45.1 µM | [6] 41.7 µM | [7] > 100 µM | [8] > 100 µM | [9] > 100 µM | [10] > 100 µM | [11] > 100 µM | [12] 33.3 µM | [13] 64.6 µM | [14] > 100 µM | [20] 30.4 µM | [15] > 100 µM | [16] 34.8 µM | [17] > 100 µM | [18] 19.9 µM

Cc1ccc(OCCn2cc(Nc3ccccc3)c(=O)n(CCOc3ccc(C)cc3)c2=O)cc1
inactive: [1] > 100 µM | [2] > 100 µM | [3] 49.9 µM | [4] > 100 µM | [5] 51.1 µM | [6] > 100 µM | [7] > 100 µM | [8] > 100 µM | [9] 35.6 µM | [10] > 100 µM | [11] > 100 µM | [12] 50.2 µM | [13] > 100 µM | [14] > 100 µM | [20] > 100 µM | [15] > 100 µM | [16] 69.5 µM | [17] 40.6 µM | [18] 48.4 µM

Fc1cc2nc3n(c2cc1F)C(c1c(Cl)cccc1Cl)SC3 (stereo unspecified)
inactive: [2] 16.1 µM | [3] 15.9 µM | [4] 18.7 µM | [5] 16.2 µM | [6] 20.1 µM | [19] 15.5 µM | [7] 14.1 µM | [8] 11.9 µM | [9] 16.5 µM | [10] 12.6 µM | [11] 17.5 µM | [12] 13.4 µM | [13] 14.3 µM | [14] 7.82 µM | [20] 14 µM | [15] 15.8 µM | [16] 18.8 µM | [17] 16 µM | [18] 18.2 µM

COc1cccc(CCNc2c(C#N)c3n(c4ccccc4[n+]3C)c3ncccc23)c1
inactive: [2] 6.93 µM | [3] 2.04 µM | [4] 4.93 µM | [5] 1.41 µM | [6] 20.9 µM | [19] 1.79 µM | [7] 6.52 µM | [8] 2.71 µM | [9] 16.4 µM | [10] 20.8 µM | [11] 5.42 µM | [12] 1.69 µM | [13] 6.59 µM | [14] 14.6 µM | [20] 20.2 µM | [15] 4.53 µM | [16] 4.52 µM | [17] 1.7 µM | [18] 21.2 µM

N#CCCN(CCC#N)c1ccc(/C=C2\N=C(c3ccccc3)N(NC(=O)c3ccncc3)C2=O)cc1
inactive: [2] > 100 µM | [3] > 100 µM | [4] > 100 µM | [5] > 100 µM | [6] > 100 µM | [19] 36.7 µM | [8] > 100 µM | [9] > 100 µM | [10] > 100 µM | [11] > 100 µM | [12] > 100 µM | [13] > 100 µM | [14] > 100 µM | [20] > 100 µM | [15] > 100 µM | [16] > 100 µM | [17] > 100 µM | [18] > 100 µM

Nc1ncc(Sc2ccccc2C(=O)O)s1
inactive: [1] > 100 µM | [2] > 100 µM | [4] > 100 µM | [5] > 100 µM | [6] > 100 µM | [19] > 100 µM | [7] > 100 µM | [8] > 100 µM | [9] > 100 µM | [10] > 100 µM | [11] > 100 µM | [12] > 100 µM | [13] > 100 µM | [14] > 100 µM | [20] > 100 µM | [15] > 100 µM | [16] > 100 µM | [17] > 100 µM | [18] > 100 µM

Nc1ncnc2c1ncn2[C@H]1CC[C@@H](NO)C1
inactive: [1] > 100 µM | [2] > 100 µM | [3] > 100 µM | [4] > 100 µM | [6] > 100 µM | [7] > 100 µM | [8] > 100 µM | [9] > 100 µM | [10] > 100 µM | [11] > 100 µM | [12] > 100 µM | [13] > 100 µM | [14] > 100 µM | [20] > 100 µM | [15] > 100 µM | [16] > 100 µM | [17] > 100 µM | [18] > 100 µM

N=C(N)NCCCCCCC(=O)NC(O)C(=O)NCCCCNCCCN (stereo unspecified)
inactive: [1] 515 µM | [2] > 750 µM | [3] 550 µM | [4] 600 µM | [5] > 750 µM | [6] > 750 µM | [19] > 750 µM | [8] 483 µM | [9] > 750 µM | [10] 711 µM | [11] > 750 µM | [12] 553 µM | [13] > 750 µM | [14] > 750 µM | [20] > 750 µM | [15] 590 µM | [16] > 750 µM | [17] 641 µM | [18] > 750 µM

O=C1[C@H](O)[C@@H]2C(O)O[C@H]3[C@@H]2N1C[C@H]3[Si](c1ccccc1)(c1ccccc1)c1ccccc1 (stereo partly specified)
inactive: [2] > 100 µM | [3] > 100 µM | [4] > 100 µM | [5] > 100 µM | [6] > 100 µM | [7] > 100 µM | [8] > 100 µM | [9] > 100 µM | [10] > 100 µM | [11] > 100 µM | [12] > 100 µM | [13] 29.1 µM | [14] > 100 µM | [20] > 100 µM | [15] > 100 µM | [16] > 100 µM | [17] > 100 µM | [18] > 100 µM

C/C=C\C(CC(=O)NCCC1CN(S(=O)(=O)c2ccc(C)cc2)c2ccccc21)CC(=O)OC (stereo unspecified)
inactive: [2] > 100 µM | [3] > 100 µM | [4] > 100 µM | [5] > 100 µM | [6] > 100 µM | [7] > 100 µM | [8] > 100 µM | [9] > 100 µM | [10] > 100 µM | [11] > 100 µM | [12] > 100 µM | [13] > 100 µM | [14] > 100 µM | [20] > 100 µM | [15] > 100 µM | [16] > 100 µM | [17] > 100 µM | [18] > 100 µM

O=c1ssc2ncccc12
inactive: [1] 31.5 µM | [2] 32.6 µM | [4] 17.9 µM | [5] 23.6 µM | [6] 59.3 µM | [19] 42.4 µM | [7] 56.6 µM | [8] 12.9 µM | [9] 22.1 µM | [10] 11.6 µM | [11] 33.7 µM | [12] 33.5 µM | [13] 46 µM | [14] 13.2 µM | [20] 24.8 µM | [15] 16.4 µM | [16] 11.9 µM | [18] 35.5 µM
